Where two headings read alike, the source gives them in different places.
Columns and labels:
DNA-PK = DNA-PK (Homo sapiens (Human), UniProt P78527); assay: DNA-PK assay (biochemical), flashplate 33P-ATP kinase assay
Method: A) DNA-PK Assay (Biochemical)
The kinase assay was carried out in streptavidin-coated […] microtitre flashplates. […] The reaction was stopped using 50 μl/well of 200 mM EDTA. After incubation for a further 30 min at room temperature, the liquid was removed. Each well was washed three times with 100 μl of 0.9% saline solution. A nonspecific reaction (blank value) was determined using 10 μM of an innate kinase inhibitor. The radioactivity measurement was carried out using a TopCount. IC50 values were calculated in RS1.

[1] = target: DNA-PK phosphorylation at serine 2056 (Homo sapiens (Human), UniProt P78527); assay: DNA-PK phosphorylation at serine 2056 (cellular), bleomycin-treated HCT116 cells, ELISA; format: cell-based
Method: HCT116 cells were cultivated at 37° C. and 10% CO2 in MEM alpha medium with 10% of foetal calf serum and 2 mM glutamine. The cells were detached from the base of the culture vessels with the aid of trypsin/EDTA, centrifuged off in centrifuge tubes, taken up in fresh medium, and the cell density was determined. 100,000 cells were sown in 1 ml of culture medium per cavity of a 24-well cell culture plate and cultivated overnight. Next day, 10 μM bleomycin (DNA intercalator and inductor of DNA double-strand breaks) and test substances in fresh culture medium were added to the cells, and these were cultivated for a further six hours. […] The 96-well ELISA plates were subsequently treated with a detection antibody (Abcam ab79444: total DNA-PK) and a streptavidin-HRP conjugate. The development of the enzymatic reaction was carried out with the aid of a chemiluminescent reagent, the chemiluminescence was measured with the aid of a Mithras LB940. The signals with the phospho-DNA-PK-specific antibody were standardised to the signal with the antibody against the total protein DNA-PKc. […] The DMSO control was used as blank.

Kv11.1 (hERG) = Kv11.1 (hERG) (Homo sapiens (Human), UniProt Q12809); assay: Kv11.1 (hERG) ion channel activity (patch clamp assay), HEK293 cells transfected with hERG gene
[2] = Table 5, HCT116 cells, read-out: IC50 pDNA-PK
[3] = cellular, HCT116 cells, 10 μM bleomycin, six hours, read-out: IC50 pDNA-PK
[4] = read-out: Ki [Kv1.11 hERG], patch clamp, HEK293 transfected with hERG gene
[5] = Ki [Kv1.11 hERG], hERG patch clamp assay (cells without asterisk)
[6] = Ki [Kv1.11 hERG], patch clamp, HEK293 transfected with hERG gene
[7] = read-out: Ki [Kv1.11 hERG], Table 5

Kv11.1 (hERG), sequence (Q12809 whole entry): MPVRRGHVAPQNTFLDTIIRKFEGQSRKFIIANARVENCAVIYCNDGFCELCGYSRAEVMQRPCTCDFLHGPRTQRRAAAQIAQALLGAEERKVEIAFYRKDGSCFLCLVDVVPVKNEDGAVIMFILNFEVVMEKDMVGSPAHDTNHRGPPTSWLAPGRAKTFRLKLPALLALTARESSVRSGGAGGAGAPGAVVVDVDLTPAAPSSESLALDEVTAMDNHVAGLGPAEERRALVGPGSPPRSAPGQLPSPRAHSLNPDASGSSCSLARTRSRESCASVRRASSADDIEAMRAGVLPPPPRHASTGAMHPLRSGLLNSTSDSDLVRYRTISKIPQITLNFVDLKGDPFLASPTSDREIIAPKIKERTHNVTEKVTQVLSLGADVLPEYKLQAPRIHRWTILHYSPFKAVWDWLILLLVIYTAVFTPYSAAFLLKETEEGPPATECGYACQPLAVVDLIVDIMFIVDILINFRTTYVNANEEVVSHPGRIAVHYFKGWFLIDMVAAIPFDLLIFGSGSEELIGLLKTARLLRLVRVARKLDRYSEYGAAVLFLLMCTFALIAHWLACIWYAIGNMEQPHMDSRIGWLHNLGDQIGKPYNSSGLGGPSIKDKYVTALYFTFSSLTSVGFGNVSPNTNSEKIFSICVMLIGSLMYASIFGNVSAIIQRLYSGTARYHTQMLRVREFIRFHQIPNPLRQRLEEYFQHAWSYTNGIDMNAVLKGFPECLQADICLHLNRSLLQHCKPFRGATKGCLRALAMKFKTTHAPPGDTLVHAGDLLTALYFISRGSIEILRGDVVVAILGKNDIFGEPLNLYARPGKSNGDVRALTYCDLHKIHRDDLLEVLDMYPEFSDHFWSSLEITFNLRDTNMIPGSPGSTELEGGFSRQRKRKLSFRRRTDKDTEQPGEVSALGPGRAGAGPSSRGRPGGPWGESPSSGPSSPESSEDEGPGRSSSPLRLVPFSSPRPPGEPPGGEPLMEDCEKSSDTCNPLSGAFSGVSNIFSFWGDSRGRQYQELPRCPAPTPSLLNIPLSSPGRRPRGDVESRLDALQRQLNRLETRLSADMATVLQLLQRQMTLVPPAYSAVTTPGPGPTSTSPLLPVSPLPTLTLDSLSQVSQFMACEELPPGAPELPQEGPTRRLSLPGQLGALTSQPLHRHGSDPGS

In the case of OC(c1ccc(F)c(-c2ncnc3cc(N4CCOCC4)sc23)c1)c1nccs1 (racemic) [Example 144, [4-fluoro-3-(6-morpholin-4-ylthieno[3,2-d]pyrimidin-4-yl)phenyl]thiazol-2-ylmethanol], the IC50 (DNA-PK; Table 5) is reported as less than 0.003 µM, the IC50 [1, 2] is reported as 0.5 to 5 µM and the Ki (Kv11.1 (hERG); human, HEK293 cells stably transfected with the hERG gene, Ki [Kv1.11 hERG], Table 5) is reported as 15 to 25 µM.

Work on OC(c1ccc2nccn2n1)c1cc(-c2ncnc3cc(N4CCOCC4)ccc23)c(F)cc1F (single isomer, unassigned) [Example 20, [2,4-Difluoro-5-(7-morpholin-4-yl-quinazolin-4-yl)phenyl]-imidazo[1,2-b]pyridazin-6-ylmethanol] yielded an IC50 (DNA-PK; enzymatic, 5 μM ATP) of 0.007 to 0.03 µM, an IC50 [1, 3] of 5 to 10 µM and a Ki (Kv11.1 (hERG); [4]) greater than 25 µM.

In the case of OC(c1ccc2nccn2n1)c1cc(-c2ncnc3cc(N4CCOCC4)ccc23)c(F)cc1F (single isomer, unassigned) [Example 21, [2,4-Difluoro-5-(7-morpholin-4-yl-quinazolin-4-yl)phenyl]-imidazo[1,2-b]pyridazin-6-ylmethanol], the IC50 (DNA-PK; enzymatic, 5 μM ATP) is reported as less than 0.003 µM, the IC50 [1, 3] is reported as less than 0.5 µM and the Ki (Kv11.1 (hERG); [4]) is reported as greater than 25 µM.

Work on OC(c1ccc(F)c(-c2ncnc3cc(N4CCOCC4)sc23)c1)c1nccnc1Cl (single isomer, unassigned) [Example 23, (3-Chloro-pyrazin-2-yl)-[4-fluoro-3-(6-morpholin-4-yl-thieno-[3,2-d}pyrimidin-4-yl)-phenyl]methanol] yielded an IC50 (DNA-PK; enzymatic, 5 μM ATP) of 0.007 to 0.03 µM, an IC50 [1, 3] of 5 to 10 µM and a Ki (Kv11.1 (hERG); [4]) greater than 25 µM.

For [2H]C1([2H])OC([2H])([2H])C([2H])([2H])N(c2ccc3c(-c4cc(C(O)c5ccc(OC)nn5)c(Cl)cc4F)ncnc3c2)C1([2H])[2H] (single isomer, unassigned) [Example 239, [2-Chloro-4-fluoro-5-[7-(2,2.3,3,5,5,6,6-octadeuteriomorpholin-4-yl)quinazolin-4-yl]phenyl]-(6-methoxypyridazin-3-yl)methanol], the Ki (Kv11.1 (hERG); [5]) was 15 to 25 µM.

For OC(c1ccc(OC2COC2)nn1)c1cc(-c2ncnc3cc(N4CCOCC4)ccc23)c(F)cc1Cl (stereo not shown) [Example 100, [2-Chloro-4-fluoro-5-(7-morpholin-4-yl-quinazolin-4-yl)-phenyl]-[6-(oxetan-3-yloxy)pyridazin-3-yl)-methanol], the IC50 [1, 3] was less than 0.5 µM and the Ki (Kv11.1 (hERG); [6]) was 10 to 15 µM.

In the case of COc1ccc(C(O)c2cc(-c3ncnc4cc(N5CCOCC5)ccc34)c(F)cc2F)nn1 (stereo not shown) [Example 131, [2,4-Difluoro-5-(7-morpholin-4-yl-quinazolin-4-yl)-phenyl]-(6-methoxy-pyridazin-3-yl)-methanol], the Ki (Kv11.1 (hERG); [6]) is reported as 15 to 25 µM.

COc1ccc([C@H](O)c2cc(-c3ncnc4cc(N5CCOCC5)ccc34)c(F)cc2Cl)nn1 [Example 135, (R)-[2-Chloro-4-fluoro-5-(7-morpholin-4-yl-quinazolin-4-yl)-phenyl]-(6-methoxy-pyridazin-3-yl)-methanol] showed a Ki (Kv11.1 (hERG); [4]) greater than 25 µM.

COc1ccc([C@@H](O)c2cc(-c3ncnc4cc(N5CCOCC5)ccc34)c(F)cc2Cl)nn1 [Example 136, (S)-[2-Chloro-4-fluoro-5-(7-morpholin-4-yl-quinazolin-4-yl)-phenyl]-(6-methoxy-pyridazin-3-yl)-methanol] showed a Ki (Kv11.1 (hERG); [4]) greater than 25 µM.

COc1ccc(C(O)c2cc(-c3ncnc4cc(N5CCOCC5)ccc34)c(F)cc2Cl)nn1 (stereo not shown) [Example 137, [2-Chloro-4-fluoro-5-(7-morpholin-4-ylquinazolin-4-yl)-phenyl]-(6-methoxy-pyridazin-3-yl)-methanol] showed a Ki (Kv11.1 (hERG); [6]) of 10 to 15 µM.

CC(O)(c1cncc(-c2ncnc3cc(N4CCOCC4)ccc23)c1)c1nccs1 (stereo not shown) [Example 138, 1-[5-(7-Morpholin-4-ylquinazolin-4-yl)-pyridin-3-yl]-1-thiazol-2-ylethanol] gave an IC50 (DNA-PK; Table 5) greater than 0.03 µM and a Ki (Kv11.1 (hERG); Ki [Kv1.11 hERG], Table 5) of 15 to 25 µM.

Molecule OC(c1ccc(F)c(-c2ncnc3cc(N4CCOCC4)sc23)c1)c1nccs1 (stereo not shown) [Example 145, [4-fluoro-3-(6-morpholin-4-ylthieno[3,2-d]pyrimidin-4-yl)phenyl]thiazol-2-ylmethanol] has an IC50 [1, 2] of 0.5 to 5 µM and a Ki (Kv11.1 (hERG); [7]) greater than 25 µM.

OC(c1ccc(-c2ncnc3cc(N4CCOCC4)ccc23)s1)c1nccs1 (stereo not shown) [Example 147, [5-(7-Morpholin-4-ylquinazolin-4-yl)-thiophen-2-yl]-thiazol-2-ylmethanol] gave a Ki (Kv11.1 (hERG); Ki [Kv1.11 hERG], Table 5) of 10 to 15 µM.

OC(c1cccc(-c2ncnc3cc(N4CCOCC4)ccc23)c1)c1nccs1 (stereo not shown) [Example 149, [3-(7-Morpholin-4-ylquinazolin-4-yl)-phenyl]thiazol-2-yl-methanol] gave an IC50 (DNA-PK; Table 5) greater than 0.03 µM and a Ki (Kv11.1 (hERG); [7]) greater than 25 µM.

Molecule CC(O)(c1cccc(-c2ncnc3cc(N4CCOCC4)ccc23)c1)c1nccs1 (stereo not shown) [Example 154, 1-[3-(7-Morpholin-4-ylquinazolin-4-yl)-phenyl]-1-thiazol-2-ylethanol] has an IC50 (DNA-PK; Table 5) greater than 0.03 µM and a Ki (Kv11.1 (hERG); Ki [Kv1.11 hERG], Table 5) of 15 to 25 µM.

OCc1csc(C(O)c2cc(-c3ncnc4cc(N5C6CCC5COC6)ccc34)c(F)cc2Cl)n1 (stereo not shown) [Example 187, {2-Chloro-4-fluoro-5-[7-(3-oxa-8-aza-bicyclo[3.2.1]oct-8-yl)quinazolin-4-yl]-phenyl}-(4-hydroxy-methylthiazol-2-yl)-methanol] showed an IC50 ([1]; IC50 pDNA-PK, Table 5, HCT116 cells) of 10 to 30 µM and a Ki (Kv11.1 (hERG); Ki [Kv1.11 hERG], Table 5) of 15 to 25 µM.

Cc1nc(C(O)c2cc(-c3ncnc4cc(N5CCOCC5)ncc34)cnc2F)sc1C (stereo not shown) [Example 192, (4,5-Dimethyl-thiazol-2-yl)-[2-fluoro-5-(7-morpholin-4-yl-pyrido[4,3-d}-pyrimidin-4-yl)-pyridin-3-yl]-methanol] gave an IC50 (DNA-PK; Table 5) greater than 0.03 µM and a Ki (Kv11.1 (hERG); Ki [Kv1.11 hERG], Table 5) of 10 to 15 µM.

With Cc1nc(C(O)c2cc(-c3ncnc4cc(N5CCOCC5)ccc34)cnc2F)sc1C (stereo not shown) [Example 194, (4,5-Dimethyl-thiazol-2-yl)-[2-fluoro-5-(7-morpholin-4-yl-quinazolin-4-yl)-pyridin-3-yl]-methanol] the IC50 (DNA-PK; Table 5) was 0.007 to 0.03 µM and the Ki (Kv11.1 (hERG); [7]) was greater than 25 µM.

Cc1csc(C(O)c2cnc(F)c(-c3ncnc4cc(N5CCOCC5)ncc34)c2)n1 (stereo not shown) [Example 195, [6-Fluoro-5-(7-morpholin-4-yl-pyrido[4,3-d}-pyrimidin-4-yl)-pyridin-3-yl]-(4-methyl-thiazol-2-yl)-methanol] gave an IC50 (DNA-PK; Table 5) greater than 0.03 µM and a Ki (Kv11.1 (hERG); Ki [Kv1.11 hERG], Table 5) of 15 to 25 µM.

Molecule CC(C)(C)n1cc(C(O)c2cc(-c3ncnc4cc(N5CCOCC5)ccc34)cnc2F)cn1 (stereo not shown) [Example 198, (1-tert-Butyl-1H-pyrazol-4-yl)-[2-fluoro-5-(7-morpholin-4-yl-quinazolin-4-yl)-pyridin-3-yl]-methanol] has an IC50 (DNA-PK; Table 5) of 0.007 to 0.03 µM and a Ki (Kv11.1 (hERG); [7]) greater than 25 µM.

For Cc1nc(C(O)c2cc(-c3ncnc4cc(N5CCOCC5)ccc34)cnc2F)sc1C (stereo not shown) [Example 206, (4,5-Dimethyl-thiazol-2-yl)-[2-fluoro-5-(7-morpholin-4-yl-quinazolin-4-yl)-pyridin-3-yl]-methanol], the IC50 (DNA-PK; Table 5) was greater than 0.03 µM and the Ki (Kv11.1 (hERG); Ki [Kv1.11 hERG], Table 5) was 15 to 25 µM.

In the case of [2H]c1c(N2CCOCC2)cc2ncnc(-c3cc(C(O)c4ccc(OC)nn4)c(Cl)cc3F)c2c1[2H] (stereo not shown) [Example 225, [2-Chloro-5-(5,6-dideuterio-7-morpholinylquinazolin-4-yl)-4-fluorophenyl]-(6-methoxypyridazin-3-yl)methanol], the Ki (Kv11.1 (hERG); [5]) is reported as greater than 25 µM.

NC(=O)C(c1cc(-c2ncnc3cc(N4CCOCC4)ccc23)c(F)cc1Cl)c1ncnn2cccc12 (stereo not shown) [Example 309, 2-[2-Chloro-4-fluoro-5-(7-morpholin-4-yl-quinazolin-4-yl)-phenyl]-2-[3H-pyrrolo[2,1-f][1,2,4]-triazin-(4E)-ylidene]-acetamide] showed an IC50 ([1]; cellular DNA-PK phosphorylation at serine 2056, HCT116, read-out: IC50 pDNA-PK) of 10 to 30 µM and a Ki (Kv11.1 (hERG); read-out: Ki [Kv1.11 hERG], hERG patch clamp assay (cells without asterisk)) of less than 10 µM.

Reference: patent US9732094B2, “Arylquinazolines” (Merck Patent GmbH, priority 2013, dated 2017)
